Assay results reported in paper PMC7175181 (Biomolecules, 2020).
“Also recorded” adds a separate entry of the source. No end group written: not given here.

Experiments:
[1] = biological target: T1, ACE (Homo sapiens, UniProt P12821); experiment: In vitro ACE inhibition assay (ACE Kit-WST); type: biochemical; conditions: for IC50: ACE Kit-WST, 1 h at 37 °C, absorbance 450 nm, non-linear regression, mean of three independent experiments (n = 3); for Comparison of IC50 (ACE inhibition): n = 3, one-way ANOVA and Sidak's multiple-comparisons test
T1 construct: purchased Dojindo Laboratories ACE Kit-WST
T1 sequence (P12821 30-1306, species assumed): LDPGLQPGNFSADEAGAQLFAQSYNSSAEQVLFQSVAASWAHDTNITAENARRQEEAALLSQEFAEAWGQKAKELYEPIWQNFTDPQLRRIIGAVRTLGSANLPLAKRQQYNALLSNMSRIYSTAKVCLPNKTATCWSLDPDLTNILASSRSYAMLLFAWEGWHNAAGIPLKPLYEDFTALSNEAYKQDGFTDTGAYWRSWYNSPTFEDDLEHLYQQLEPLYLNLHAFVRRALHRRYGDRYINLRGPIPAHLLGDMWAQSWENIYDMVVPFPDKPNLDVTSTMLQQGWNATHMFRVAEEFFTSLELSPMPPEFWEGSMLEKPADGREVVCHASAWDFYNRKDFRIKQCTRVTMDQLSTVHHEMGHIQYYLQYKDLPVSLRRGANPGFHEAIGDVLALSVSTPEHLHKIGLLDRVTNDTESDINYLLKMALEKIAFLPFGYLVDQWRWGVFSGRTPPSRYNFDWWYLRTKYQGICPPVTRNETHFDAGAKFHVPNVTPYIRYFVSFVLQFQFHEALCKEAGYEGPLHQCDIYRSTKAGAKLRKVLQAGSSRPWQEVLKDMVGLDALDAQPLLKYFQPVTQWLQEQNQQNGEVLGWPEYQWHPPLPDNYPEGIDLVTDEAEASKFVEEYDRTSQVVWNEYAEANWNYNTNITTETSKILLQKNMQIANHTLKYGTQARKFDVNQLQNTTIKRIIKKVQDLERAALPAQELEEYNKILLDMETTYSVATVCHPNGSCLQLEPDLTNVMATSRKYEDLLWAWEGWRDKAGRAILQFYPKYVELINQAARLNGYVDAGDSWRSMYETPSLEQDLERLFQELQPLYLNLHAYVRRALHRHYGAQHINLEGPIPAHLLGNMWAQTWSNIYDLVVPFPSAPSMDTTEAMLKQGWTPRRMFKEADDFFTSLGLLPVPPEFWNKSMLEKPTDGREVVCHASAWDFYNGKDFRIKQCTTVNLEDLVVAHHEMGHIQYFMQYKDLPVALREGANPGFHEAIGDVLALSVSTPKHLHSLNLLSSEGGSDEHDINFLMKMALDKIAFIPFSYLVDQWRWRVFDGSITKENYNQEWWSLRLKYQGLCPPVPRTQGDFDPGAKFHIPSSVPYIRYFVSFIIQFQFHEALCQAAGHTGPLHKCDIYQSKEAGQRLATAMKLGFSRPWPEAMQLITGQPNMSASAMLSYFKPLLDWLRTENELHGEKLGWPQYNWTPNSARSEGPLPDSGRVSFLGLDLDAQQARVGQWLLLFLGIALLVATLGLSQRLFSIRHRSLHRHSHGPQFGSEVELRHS
Method: The inhibition of ACE was measured using the ACE Kit-WST (Dojindo Laboratories, Mashiki-machi, Japan). Custom synthesized hemorphin peptides ([…], […], YPWTQRF, and YPWTRRF) were purchased from New England Peptide (Gardner, MA, USA). Indicator working solution and enzyme working solution were prepared according to the manufacturer’s instructions. 10 µL of each dose of hemorphin was added to the wells of a 96-well microplate. 20 µL and 40 µL of deionized water were added in blank 1 and blank 2 wells. 20 µL of the substrate buffer was added to each well, followed by 20 µL of enzyme working solution in all of the sample wells and blank 1. The plate was incubated for 1 h at 37 °C. After the incubation period, 200 µL of indicator working solution was added to each well and then incubated at room temperature for 5 min. After incubation, plate absorbance was measured at 450 nm using Glomax Discover Microplate Reader (Promega, Madison, WI, USA). The inhibition of ACE was calculated using the following equation: Inhibition rate (%) = (Ablank1 − Asample)/(Ablank1 − Ablank2) × 100.
From the obtained data, IC50 was calculated using Prism 7 (GraphPad, San Diego, CA, USA) from a non-linear regression plot of ACE inhibition (%) against peptide concentration (µM).
Nonlinear regression was used to generate dose–response curves in Prism 7 (GraphPad, San Diego, CA, USA). The observed data are presented as mean ± SEM (Standard Error of the Mean). One-way or two-way analysis of variance (ANOVA), as appropriate, were carried out and a comparison of means was performed by Sidak’s multiple-comparisons test to estimate the statistical significance between the different treatments.

[2] = ref [15],[16]; cited from earlier work
From the text: Hemorphins are endogenous peptides that are produced from beta hemoglobin. Hemorphins of various lengths (4–10 amino acids) have been identified so far. These peptides are mainly produced in the plasma, brain, cerebrospinal fluid, and spinal cord. The decapeptide LVV-hemorphin-7 ([…]) is considered to be the longest form of hemorphin and is found abundantly in the mammalian nervous system. […] Numerous studies have reported various biological activities of hemor ...

[3] = cited from earlier work
From the text: Angiotensin-I converting enzyme (ACE) is a zinc metallopeptidase that is found in many tissues and biological fluids and it is an important player in regulating RAAS and kallikrein-kinnin system (KKS). There are two main mechanisms by which ACE causes hypertension. Firstly, ACE cleaves two amino acids from the decapeptide angiotensin I to produce the octapeptide angiotensin II, which is a strong vasoconstrictor. Secondly, ACE is involved in the degradation of bradykinnin, a potent vasodilator [5, 6]. ACE is associated with hypertension and remains an important target for the discovery of an ...

[4] = system: ACE; conditions: ref [53]; cited from earlier work
[5] = biological target: T1, ACE; parameters: method as in 2 sources, one per row (each row's own in cited_ref): ref [54] = [54]; PMID 7945362; doi:10.1006/bbrc.1994.2447; 54. Zhao Q. Sannier F. Garreau I. Guillochon D. Piot J.M. Inhibition and inhibition kinetics of angiotensin converting enzyme activity by hemorphins, isolated from a peptic bovine hemoglobin hydrolysa ||| ref [24] = [24]; PMID 12182948; doi:10.1016/S0196-9781(02)00083-9; 24. Fruitier-Arnaudin I. Cohen M. Bordenave S. Sannier F. Piot J.M. Comparative effects of angiotensin IV and two hemorphins on angiotensin-converting enzyme activity Peptides 2002 23 1465 1470 10.101; conditions: ref [54]; cited from earlier work
Method: An ACE inhibition assay was performed to evaluate the IC50 of these peptides to investigate this further.

| Molecule | IC50 [1] | Comparison of IC50 (ACE inhibition) [1] | further results |
| --- | --- | --- | --- |
| CC(C)C[C@H](N)C(=O)N[C@H](C(=O)N[C@H](C(=O)N[C@@H](Cc1ccc(O)cc1)C(=O)N1CCC[C@H]1C(=O)N[C@@H](Cc1c[nH]c2ccccc12)C(=O)N[C@H](C(=O)N[C@@H](CCC(N)=O)C(=O)N[C@@H](CCCNC(=N)N)C(=O)N[C@@H](Cc1ccccc1)C(=O)O)[C@@H](C)O)C(C)C)C(C)C | 12.6 µM | significantly lower than that of YPWTQRF (25.894 µM) | Stability compared to other hemorphins [2]: most stable |
| CC(C)C[C@H](N)C(=O)N[C@H](C(=O)N[C@H](C(=O)N[C@@H](Cc1ccc(O)cc1)C(=O)N1CCC[C@H]1C(=O)N[C@@H](Cc1c[nH]c2ccccc12)C(=O)N[C@H](C(=O)N[C@@H](CCCNC(=N)N)C(=O)N[C@@H](CCCNC(=N)N)C(=O)N[C@@H](Cc1ccccc1)C(=O)O)[C@@H](C)O)C(C)C)C(C)C | 6.6 µM | lower than YPWTRRF (9.310 µM); also recorded: the difference between LVVYPWTRRF and YPWTRRF was not significant | Comparison of IC50 (ACE inhibition) ([1]; listed as camel LVV-hemorphin-7): significantly less than non-camel LVV-hemorphin-7 (12.649 µM) (p < 0.05, n = 3) |
| C[C@H](CS)C(=O)N1CCC[C@H]1C(=O)O [captopril] |  |  | Side effects [3]: cough, kidney problems, angioedema, and allergic reactions |
| C[C@H](N[C@@H](CCc1ccccc1)C(=O)O)C(=O)N1CCC[C@H]1C(=O)O [enalaprilat] |  |  | Affinity for ACE compared to lisinopril [4]: lower affinity when compared to lisinopril |
| VVYPWTQRF |  |  | ACE inhibitory activity compared to other hemorphins [5]: the removal of the N-terminus leucine significantly decreased the ACE inhibition activity of VVYPWTQRF in comparison to LVVYPWTQRF |
| YPWTQRF [YPWTQRF] | 25.9 µM |  |  |
| YPWTRRF [YPWTRRF] | 9.31 µM | significantly lower IC50 | Comparison of IC50 (ACE inhibition) ([1]; listed as camel hemorphin-7): significantly lower than the non-camel hemorphin-7 (25.894 µM) (p < 0.001, n = 3) |
